Source: US10336762B2 (priority 2017, dated 2019)
Where two headings read alike, the source gives them in different places.

Tests used:
IRAK4 enzyme = IRAK4 enzyme (Homo sapiens (Human), UniProt Q9NWZ3); assay: biochemical; format: biochemical
TNFα = assay: cells; format: cell-based, human; details: read-out: EC50 TNF
[1] = IRAK4 enzyme, TR-FRET, 500 μM ATP
[2] = Homo sapiens, Monocyte, LPS-stimulated human monocytes, TNFα content

Sequence of IRAK4 enzyme (Q9NWZ3 whole entry): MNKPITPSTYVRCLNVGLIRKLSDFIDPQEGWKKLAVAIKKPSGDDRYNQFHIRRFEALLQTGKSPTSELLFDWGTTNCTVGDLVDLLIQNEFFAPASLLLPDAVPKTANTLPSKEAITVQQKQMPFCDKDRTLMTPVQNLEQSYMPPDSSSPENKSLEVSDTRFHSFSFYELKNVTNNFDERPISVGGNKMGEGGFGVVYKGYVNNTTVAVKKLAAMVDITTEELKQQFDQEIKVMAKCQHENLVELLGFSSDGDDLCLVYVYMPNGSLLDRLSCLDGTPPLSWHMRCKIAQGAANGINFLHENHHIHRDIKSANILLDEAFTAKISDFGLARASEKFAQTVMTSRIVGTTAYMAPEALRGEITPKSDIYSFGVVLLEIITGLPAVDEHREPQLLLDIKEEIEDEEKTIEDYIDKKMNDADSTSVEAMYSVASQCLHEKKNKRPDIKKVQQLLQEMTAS

Row | Structure (SMILES) | IC50 (IRAK4 enzyme; [1]) | EC50 (TNFα; [2]) | EC50 (TNFα; LPS-stimulated human monocytes, TNFα content) | IC50 (IRAK4 enzyme) | EC50 (TNFα; Homo sapiens, Monocyte)
1 | CC(C)(O)[C@H](F)CNC(=O)c1cnc(-c2ccc3cc(C#N)cnn23)cc1NC12CCC(N)(CC1)CC2 [Example 318, (R)-4-((4-amino-bicyclo[2.2.2]octan-1-yl)amino)-6-(3-cyano-pyrrolo[1,2-b]pyridazin-7-yl)-N-(2-fluoro-3-hydroxy-3-methylbutyl)nicotinamide] | < 1 nM | 23 nM | – | – | –
2 | CC(C)(O)[C@H](F)CNC(=O)c1cnc(-c2ccc3cc(C#N)cnn23)cc1N[C@H]1CC[C@@H](NC(=O)C(F)(F)F)CC1 [Example 319, 6-(3-cyanopyrrolo[1,2-b]pyridazin-7-yl)-N-((R)-2-fluoro-3-hydroxy-3-methyl-butyl)-4-(((1s,4S)-4-(2,2,2-trifluoroacetamido)cyclo-hexyl)amino)nicotinamide] | 19 nM | 2220 nM | – | – | –
3 | CC(=O)N[C@H]1CC[C@@H](Nc2cc(-c3ccc4cc(C#N)cnn34)ncc2C(=O)NC[C@@H](F)C(C)(C)O)CC1 [Example 320, 4-(((1s,4S)-4-acetamidocyclohexyl)amino)-6-(3-cyano-pyrrolo[1,2-b]pyridazin-7-yl)-N-((R)-2-fluoro-3-hydroxy-3-methylbutyl) nicotinamide] | 3 nM | 1910 nM | – | – | –
4 | CC(C)(O)[C@H](F)CNC(=O)c1cnc(-c2ccc3cc(C#N)cnn23)cc1NC1CC1CO (stereo partly drawn) [Example 321, 6-(3-cyanopyrrolo[1,2-b]pyridazin-7-yl)-N-((R)-2-fluoro-3-hydroxy-3-methylbutyl)-4-((2-(hydroxymethyl)cyclo-propyl)amino)nicotinamide] | < 1 nM | – | 38 nM | – | –
5 | CC(C)Nc1cc(-c2ccc3cc(C#N)cnn23)ncc1C(=O)N[C@H]1CCOC[C@@H]1F [Example 322, 6-(3-cyanopyrrolo[1,2-b]pyridazin-7-yl)-N-((3R,4S)-3-fluorotetrahydro-2H-pyran-4-yl)-4-(isopropylamino) nicotinamide] | 5 nM | 169 nM | – | – | –
6 | CC(C)Nc1cc(-c2ccc3cc(C#N)cnn23)ncc1C(=O)N[C@@H]1CCOC[C@H]1F [Example 323, 6-(3-cyanopyrrolo[1,2-b]pyridazin-7-yl)-N-((3S,4R)-3-fluoro-tetrahydro-2H-pyran-4-yl)-4-(isopropylamino) nicotinamide] | 5 nM | 187 nM | – | – | –
7 | C[C@@H](O)C(=O)N1CCC(Nc2cc(-c3ccc4cc(C#N)cnn34)ncc2C(=O)NC[C@@H](F)C(C)(C)O)CC1 [Example 324, 6-(3-cyanopyrrolo[1,2-b]pyridazin-7-yl)-N-((R)-2-fluoro-3-hydroxy-3-methylbutyl)-4-((1-((R)-2-hydroxy-propanoyl)piperidin-4-yl)amino)nicotinamide] | 2 nM | 157 nM | – | – | –
8 | CC1(C(=O)N2CCC(Nc3cc(-c4ccc5cc(C#N)cnn45)ncc3C(=O)NC[C@@H](F)C(C)(C)O)CC2)COC1 [Example 325, (R)-6-(3-cyanopyrrolo[1,2-b]pyridazin-7-yl)-N-(2-fluoro-3-hydroxy-3-methylbutyl)-4-((1-(3-methyloxetane-3-carbonyl)piperidin-4-yl)amino)nicotinamide] | 3 nM | 228 nM | – | – | –
9 | CC(=O)N[C@H]1CC[C@H](Nc2cc(-c3ccc4cc(C#N)cnn34)ncc2C(=O)NC[C@@H](F)C(C)(C)O)CC1 [Example 326, 4-(((1r,4R)-4-acetamidocyclohexyl)amino)-6-(3-cyanopyrrolo[1,2-b]pyridazin-7-yl)-N-((R)-2-fluoro-3-hydroxy-3-methylbutyl)nicotinamide] | – | – | – | < 1 nM | 56 nM
10 | CC(C)(O)[C@H](F)CNC(=O)c1cnc(-c2ccc3cc(C#N)cnn23)cc1NC1CCNC(=O)C1 (stereo partly drawn) [Example 327, 6-(3-cyanopyrrolo[1,2-b]pyridazin-7-yl)-N-((R)-2-fluoro-3-hydroxy-3-methylbutyl)-4-((2-oxo-piperidin-4-yl)amino)nicotinamide] | 1 nM | 738 nM | – | – | –
11 | COCC(=O)N1CCC(Nc2cc(-c3ccc4cc(C#N)cnn34)ncc2C(=O)NC[C@@H](F)C(C)(C)O)CC1 [Example 328, (R)-6-(3-cyanopyrrolo[1,2-b]pyridazin-7-yl)-N-(2-fluoro-3-hydroxy-3-methylbutyl)-4-((1-(2-methoxyacetyl)piperidin-4-yl)amino)nicotinamide] | 6 nM | 300 nM | – | – | –
12 | CC(C)(O)[C@H](F)CNC(=O)c1cnc(-c2ccc3cc(C#N)cnn23)cc1NC1CCN(CC(F)(F)F)CC1 [Example 329, (R)-6-(3-cyanopyrrolo[1,2-b]pyridazin-7-yl)-N-(2-fluoro-3-hydroxy-3-methylbutyl)-4-((1-(2,2,2-trifluoroethyl)piperidin-4-yl)amino)nicotinamide] | 1 nM | 62 nM | – | – | –
13 | CC(C)Nc1cc(-c2ccc3cc(C#N)cnn23)ncc1C(=O)NCC(O)C(C)(C)O (centres unmarked) [Example 330, 6-(3-cyanopyrrolo[1,2-b]pyridazin-7-yl)-N-(2,3-dihydroxy-3-methyl-butyl)-4-(isopropylamino) nicotinamide] | 6 nM | 171 nM | – | – | –
14 | N#Cc1cnn2c(-c3cc(NC45CCC(O)(CC4)CC5)c(C(=O)NCC(=O)N4CC(F)(F)C4)cn3)ccc2c1 [Example 331, 6-(3-cyanopyrrolo[1,2-b]pyridazin-7-yl)-N-(2-(3,3-difluoroazetidin-1-yl)-2-oxoethyl)-4-((4-hydroxybicyclo[2.2.2]octan-1-yl)amino) nicotinamide] | < 1 nM | 25 nM | – | – | –
15 | CC(C)Nc1cc(-c2ccc3cc(C#N)cnn23)ncc1C(=O)NCC(=O)C(C)(C)O [Example 332, 6-(3-cyanopyrrolo[1,2-b]pyridazin-7-yl)-N-(3-hydroxy-3-methyl-2-oxobutyl)-4-(isopropyl-amino)nicotinamide] | < 1 nM | 43 nM | – | – | –
16 | CN(C)C(=O)CNC(=O)c1cnc(-c2ccc3cc(C#N)cnn23)cc1NC12CCC(O)(CC1)CC2 [Example 333, 6-(3-cyanopyrrolo[1,2-b]pyridazin-7-yl)-N-(2-(dimethylamino)-2-oxo-ethyl)-4-((4-hydroxy-bicyclo[2.2.2]octan-1-yl)amino)nicotinamide] | < 1 nM | 87 nM | – | – | –
17 | CNC(=O)CNC(=O)c1cnc(-c2ccc3cc(C#N)cnn23)cc1NC12CCC(O)(CC1)CC2 [Example 334, 6-(3-cyanopyrrolo[1,2-b]pyridazin-7-yl)-4-((4-hydroxybicyclo[2.2.2]octan-1-yl)amino)-N-(2-(methylamino)-2-oxoethyl)nicotinamide] | < 1 nM | 292 nM | – | – | –
18 | CC(C)(O)[C@H](F)CNC(=O)c1cnc(-c2ccc3cc(C#N)cnn23)cc1Nc1nc(Cc2ccccc2)ns1 [Example 335, (R)-4-((3-benzyl-1,2,4-thiadiazol-5-yl)amino)-6-(3-cyanopyrrolo[1,2-b]pyridazin-7-yl)-N-(2-fluoro-3-hydroxy-3-methylbutyl)nicotinamide] | 3 nM | 100 nM | – | – | –
19 | CC(C)(O)[C@H](F)CNC(=O)c1cnc(-c2ccc3cc(C#N)cnn23)cc1Nc1nnc(Cc2ccccc2)o1 [Example 336, (R)-4-((5-benzyl-1,3,4-oxadiazol-2-yl)amino)-6-(3-cyanopyrrolo[1,2-b]pyridazin-7-yl)-N-(2-fluoro-3-hydroxy-3-methyl-butyl)nicotinamide] | 5 nM | 522 nM | – | – | –
